Assay results taken from ChEMBL document CHEMBL1201862, “PubChem BioAssay data set” (2004).
Active and inactive are the calls of the source.

Legend:
[1] = off-target signal loss in HeLa-CEM21 co-culture – HeLa F-luc CTL cells, cherry-picked, counter-screen for HIV-1 Env fusion inhibitor project, dose response (AID 652040); type: functional, cell-based;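 further: potency for signal decrease marking cytotoxic or nonspecific inhibition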
[2] = ZM109 Env clade C HIV-1 fusion inhibitors, dose response, HeLa effector, CEM target cells, luciferase, cherry-pick (AID 652058); type: functional, cell-based
[3] = inhibitors of clade B AD8 Env fusion, dose response, cell-based, cherry-pick (AID 652062); type: functional;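 further: luciferase signal from cell-cell fusion driven by HIV-1 clade B AD8 Env; potency is for inhibitors of fusion seen as a drop in luminescence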
Interleukin-8 = Interleukin-8 (Homo sapiens, UniProt P10145); test: Dose Response confirmation of uHTS small molecule hits for cystic fibrosis induced NFkb Inhibitors in a PAF-induced IL8 counterscreen.; type: functional; details: read-out: IC50_Mean
Interleukin-8, sequence (P10145 whole entry, the tested form may be a part): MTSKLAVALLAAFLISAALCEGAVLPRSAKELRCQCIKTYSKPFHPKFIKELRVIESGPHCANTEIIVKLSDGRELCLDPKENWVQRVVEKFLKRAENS

[4] = inhibitors of HIV Env-driven cell fusion, dose response, cherry-pick (AID 652057); type: functional, cell-based
cells = type: functional, cell-based; details: HEK-CNG
Galanin receptor type 3 = Galanin receptor type 3 (Homo sapiens, UniProt O60755); test: Fluorescence-based cell-based primary high throughput dose response assay to identify antagonists of the Galanin Receptor 3 (GalR3).; type: functional
Galanin receptor type 3, sequence (O60755 whole entry): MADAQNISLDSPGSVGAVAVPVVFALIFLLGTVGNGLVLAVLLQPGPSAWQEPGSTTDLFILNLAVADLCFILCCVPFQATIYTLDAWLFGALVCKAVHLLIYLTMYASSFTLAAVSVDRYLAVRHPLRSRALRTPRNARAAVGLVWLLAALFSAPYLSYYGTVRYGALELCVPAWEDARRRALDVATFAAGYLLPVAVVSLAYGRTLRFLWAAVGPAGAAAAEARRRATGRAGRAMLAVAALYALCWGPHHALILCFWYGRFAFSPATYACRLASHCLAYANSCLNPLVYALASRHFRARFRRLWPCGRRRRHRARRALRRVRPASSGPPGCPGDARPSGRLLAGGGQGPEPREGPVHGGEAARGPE

[5] = target: T1, Long-chain-fatty-acid--AMP ligase FadD28 (Mycobacterium tuberculosis, UniProt P9WQ59); test: Fluorescence polarization aasay to screen for inhibitors that compete for the binding of FadD28 to a bisubstrate Measured in Biochemical System Using Plate Reader - 2147-01_Inhibitor_Dose_CherryPick_Activity.; type: functional, Mycobacterium tuberculosis H37Rv
T1 sequence (P9WQ59 whole entry): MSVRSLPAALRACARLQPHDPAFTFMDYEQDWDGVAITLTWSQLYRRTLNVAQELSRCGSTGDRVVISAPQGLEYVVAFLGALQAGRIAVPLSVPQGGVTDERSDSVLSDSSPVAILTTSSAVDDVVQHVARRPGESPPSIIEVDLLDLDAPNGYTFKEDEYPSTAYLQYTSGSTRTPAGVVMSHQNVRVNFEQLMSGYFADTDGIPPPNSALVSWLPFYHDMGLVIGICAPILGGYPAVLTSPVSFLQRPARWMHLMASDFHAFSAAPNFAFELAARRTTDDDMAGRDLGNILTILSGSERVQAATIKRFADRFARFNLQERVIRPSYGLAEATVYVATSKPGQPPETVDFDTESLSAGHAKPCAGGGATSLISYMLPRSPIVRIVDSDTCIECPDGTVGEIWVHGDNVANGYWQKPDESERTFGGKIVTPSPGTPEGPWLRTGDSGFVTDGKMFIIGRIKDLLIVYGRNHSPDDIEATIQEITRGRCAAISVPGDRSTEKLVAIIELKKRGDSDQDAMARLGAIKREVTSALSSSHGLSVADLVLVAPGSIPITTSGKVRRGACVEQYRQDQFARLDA

H9c2 = test: cells; type: functional, cell-based; details: Rattus norvegicus, H9c2, Myocardium;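 further: confirmatory concentration-response retest of ultra-high-throughput screening hits for modulation of myocardial damage; cell death induced by hydrogen peroxide oxidative stress; compound pretreatment for 60 min then peroxide exposure for 2 h; potency is for protecting the cells against peroxide damage rather than for killing them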
[6] = human group III sPLA2 inhibitors, dose response, biochemical, QFRET, IC50 (AID 743457);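 further: green fluorescence rise as the enzyme cleaves BODIPY PC-A2 in liposomes; potency for inhibition of the enzyme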
[7] = target: T2, Oxysterols receptor LXR-beta (Homo sapiens, UniProt P55055); type: functional, cell-based;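 further: agonist activity at LXR measured by a cell-based luminescence readout across a dose range, run as a counterscreen for daf-12 agonists; HEK293 cells with Gal4-LXR fusion and GAL4-driven luciferase reporter; potency for activation of Gal4-LXR reporter so compounds are agonists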
T2 sequence (P55055 whole entry): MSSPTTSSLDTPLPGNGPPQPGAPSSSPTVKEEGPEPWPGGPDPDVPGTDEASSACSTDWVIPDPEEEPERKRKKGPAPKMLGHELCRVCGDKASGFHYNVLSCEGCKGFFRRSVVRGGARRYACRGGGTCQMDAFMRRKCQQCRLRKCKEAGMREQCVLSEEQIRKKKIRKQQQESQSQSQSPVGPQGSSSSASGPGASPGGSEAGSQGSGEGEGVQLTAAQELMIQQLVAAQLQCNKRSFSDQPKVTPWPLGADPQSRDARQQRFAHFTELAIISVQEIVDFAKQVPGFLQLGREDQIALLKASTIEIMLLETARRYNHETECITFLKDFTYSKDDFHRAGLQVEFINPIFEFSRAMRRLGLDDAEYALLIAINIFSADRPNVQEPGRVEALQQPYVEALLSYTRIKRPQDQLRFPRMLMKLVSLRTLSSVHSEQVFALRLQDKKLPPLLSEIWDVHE

[8] = cytotoxicity in HEK-293T cells, dose response, cytotoxicity control for BCR NF-kB inhibitor project, luminescence, B-cell screen hits (AID 489021); type: functional, cell-based;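 further: HEK-293T cells carrying an NF-kB luciferase reporter; cells exposed to compound for about 14 hours before viability readout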
[9] = target: T3, Sentrin-specific protease 8 (Homo sapiens, UniProt Q96LD8); type: functional
T3 sequence (Q96LD8 whole entry): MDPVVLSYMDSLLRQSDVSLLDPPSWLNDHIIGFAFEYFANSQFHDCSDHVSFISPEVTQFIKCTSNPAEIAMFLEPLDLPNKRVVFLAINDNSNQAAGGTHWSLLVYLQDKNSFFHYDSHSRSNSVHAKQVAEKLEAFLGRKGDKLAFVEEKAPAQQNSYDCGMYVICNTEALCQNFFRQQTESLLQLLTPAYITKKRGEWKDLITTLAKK

[10] = cytotoxicity toward NIH3T3 fibroblasts, dose response, counter-screen, cell-based, ATP luminescence, mouse fibroblasts (AID 2010); type: functional;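 further: cells exposed to compound for about 90 hours before reading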
[11] = target: T3, Sentrin-specific protease 8; type: functional; remark: listed apart in the source
[12] = inhibitors of intracellular T. cruzi replication, confirmation, NIH3T3 host cells, beta-gal luminescence (AID 2044); type: functional, cell-based;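 further: intracellular parasites grown in NIH/3T3 mouse fibroblasts as host cells; luminescent beta-galactosidase reporter signal from transgenic T. cruzi replicating inside host cells; inhibitors lower the luminescence signal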
[13] = target: T4, Probable nicotinate-nucleotide adenylyltransferase (Staphylococcus aureus (strain N315), UniProt P65502); type: functional, Staphylococcus aureus subsp. aureus N315;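 on IC50 Mean: confirmatory dose-response retesting of NadD inhibitor hits first found in an ultra-high-throughput screen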
T4 sequence (P65502 whole entry): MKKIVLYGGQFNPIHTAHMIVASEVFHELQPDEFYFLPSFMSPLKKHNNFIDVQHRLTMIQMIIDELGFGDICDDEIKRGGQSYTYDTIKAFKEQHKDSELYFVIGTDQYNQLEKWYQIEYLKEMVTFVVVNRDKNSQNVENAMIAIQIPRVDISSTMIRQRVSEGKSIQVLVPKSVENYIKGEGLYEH

[14] = growth suppression of beta-catenin-knockout colon cells, dose response, cell-based, HCT116, human colon tumor (AID 1045); type: functional;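 further: HCT116 colon tumor cells with beta catenin knocked out; cells exposed to compound for 60 hours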
[15] = target: T4, Probable nicotinate-nucleotide adenylyltransferase; type: functional, Staphylococcus aureus subsp. aureus N315; details: read-out: IC50_Mean
[16] = growth suppression of PTEN-null colon cells, dose response, cell-based, HCT116 PTEN knockout (AID 1047); type: functional;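 further: HCT116 colon tumor cells with PTEN knocked out; cells exposed to compound for 60 hours before readout; potency for loss of cell viability measured by luminescence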
HEK293 = test: inhibitors of LMP1-driven NF-kB reporter, dose response, cell-based, HEK293, luciferase, cherry-pick (AID 588343); type: functional; details: Homo sapiens
[17] = target: T5, Methionyl-tRNA synthetase, putative (Trypanosoma brucei brucei, UniProt Q38C91); type: functional, Trypanosoma brucei brucei strain 927/4 GUTat10.1
T5 sequence (Q38C91 whole entry): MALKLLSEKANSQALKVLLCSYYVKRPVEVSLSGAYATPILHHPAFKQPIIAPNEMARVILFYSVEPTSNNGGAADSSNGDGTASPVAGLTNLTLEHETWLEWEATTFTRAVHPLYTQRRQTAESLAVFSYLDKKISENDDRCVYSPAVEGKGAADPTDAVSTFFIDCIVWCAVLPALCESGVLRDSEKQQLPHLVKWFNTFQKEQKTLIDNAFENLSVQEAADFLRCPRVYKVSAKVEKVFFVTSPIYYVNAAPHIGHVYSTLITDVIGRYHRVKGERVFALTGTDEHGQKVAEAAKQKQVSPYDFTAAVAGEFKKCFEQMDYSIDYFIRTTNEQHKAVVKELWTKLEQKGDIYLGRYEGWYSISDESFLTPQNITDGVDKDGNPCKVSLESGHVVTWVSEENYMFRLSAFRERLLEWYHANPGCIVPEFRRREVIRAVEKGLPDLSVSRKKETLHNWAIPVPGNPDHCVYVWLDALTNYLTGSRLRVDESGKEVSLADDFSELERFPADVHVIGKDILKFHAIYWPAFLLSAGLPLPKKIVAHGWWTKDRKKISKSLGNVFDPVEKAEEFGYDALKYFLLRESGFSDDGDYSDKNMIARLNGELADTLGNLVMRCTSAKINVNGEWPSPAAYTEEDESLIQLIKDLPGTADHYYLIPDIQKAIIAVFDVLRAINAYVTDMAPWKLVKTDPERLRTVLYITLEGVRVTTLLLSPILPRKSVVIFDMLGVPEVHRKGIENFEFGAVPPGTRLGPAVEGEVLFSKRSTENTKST

[18] = target: T5, Methionyl-tRNA synthetase, putative; type: functional, Trypanosoma brucei brucei strain 927/4 GUTat10.1; remark: listed apart in the source
[19] = Counterscreen for inhibitors of Trypanosoma brucei methionyl tRNA synthetase (MetRS): Luminescence-based cell-based high throughput dose response assay to identify compounds that are cytotoxic to Jurkat human T lymphocyte cells.; type: functional
[20] = ADAM10 protease inhibitors, dose response, selectivity assay for ADAM17 exosite inhibitor project, biochemical, FRET peptide substrate, recombinant human ADAM10 (AID 743259);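 further: ADAM10 enzyme cleaving a FRET peptide substrate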
[21] = target: Disintegrin and metalloproteinase domain-containing protein 17 (Homo sapiens, UniProt P78536); test: exosite inhibitors of ADAM17, dose response, biochemical (AID 743260)
Disintegrin and metalloproteinase domain-containing protein 17, sequence (P78536 whole entry, the tested form may be a part): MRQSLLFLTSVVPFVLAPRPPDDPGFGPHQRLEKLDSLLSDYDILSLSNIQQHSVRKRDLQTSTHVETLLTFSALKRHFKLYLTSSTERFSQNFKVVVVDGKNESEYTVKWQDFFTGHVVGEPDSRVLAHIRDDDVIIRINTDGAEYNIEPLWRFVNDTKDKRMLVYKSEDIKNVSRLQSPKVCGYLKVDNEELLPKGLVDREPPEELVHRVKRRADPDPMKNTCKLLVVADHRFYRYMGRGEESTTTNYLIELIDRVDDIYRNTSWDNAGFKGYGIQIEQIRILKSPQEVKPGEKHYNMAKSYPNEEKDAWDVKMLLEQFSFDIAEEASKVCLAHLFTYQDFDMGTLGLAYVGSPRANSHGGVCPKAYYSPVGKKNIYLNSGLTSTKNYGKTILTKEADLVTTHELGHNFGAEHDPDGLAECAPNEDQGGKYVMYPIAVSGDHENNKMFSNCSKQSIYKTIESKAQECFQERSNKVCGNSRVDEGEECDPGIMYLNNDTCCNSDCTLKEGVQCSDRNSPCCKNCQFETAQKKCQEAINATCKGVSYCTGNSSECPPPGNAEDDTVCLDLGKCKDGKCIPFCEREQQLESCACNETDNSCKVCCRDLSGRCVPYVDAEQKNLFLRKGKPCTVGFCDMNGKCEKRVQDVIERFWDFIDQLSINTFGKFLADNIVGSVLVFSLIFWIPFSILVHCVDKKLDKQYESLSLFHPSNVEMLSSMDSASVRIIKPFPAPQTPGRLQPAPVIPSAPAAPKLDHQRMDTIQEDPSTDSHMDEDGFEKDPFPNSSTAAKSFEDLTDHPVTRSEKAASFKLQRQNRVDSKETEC

COc1ccc(C2=Nn3c(nnc3-c3ccncc3)SC2)cc1
AC50 [1]: 2.34 µM (active) | AC50 [2]: 1.13 µM (active) | AC50 [3]: 1.03 µM (active) | IC50 (Interleukin-8): 40.8 µM (inactive) | AC50 [4]: 2.02 µM (active)

CNC(=O)NC(=O)CSc1nnc(-c2ccc(F)cc2)n1CC1CCCO1 (centres undefined)
EC50 (cells): > 29.9 µM (inactive) | IC50 (Galanin receptor type 3): > 29.9 µM (inactive)

CCOC(=O)N1CCN(S(=O)(=O)c2ccc(C(=O)NNc3nc4c(C)cccc4s3)cc2)CC1
AC50 [5]: 22.1 µM (active) | IC50 (H9c2): 14.2 µM (active) | IC50 [6]: 25.9 µM (inactive)

Cc1ccc2nc(-c3ccccn3)oc2c1
EC50 [7]: > 67.6 µM (inactive)

CCc1ccc(/C=C(/C#N)C(N)=S)cc1
IC50 [6]: > 122 µM (inactive)

Cc1ccc(Sc2cc(NCCCO)c([N+](=O)[O-])c3nonc23)cc1
IC50 [8]: > 80 µM (inactive) | IC50 [9]: 23.3 µM (active) | EC50 [10]: > 60 µM (not active) | IC50 [11]: 18.1 µM (active) | EC50 [12]: 2.2 µM (active)

O=C(NC(=S)Nc1cc(-c2nc3ccccc3[nH]2)ccc1Cl)c1ccc2c(c1)OCO2
IC50 [13]: 21.1 µM (active) | EC50 [14]: 2.23 µM (active) | IC50 [15]: 58.9 µM (active) | EC50 [16]: 1.53 µM (active)

Cc1cccc(Nc2[nH]nc(C)c2[N+](=O)[O-])c1
EC50 [7]: > 67.5 µM (inactive)

CC(=O)c1c(C)n(C2CCCCC2)c2ccc(O)cc12
AC50 (HEK293): 3.23 µM (active) | IC50 (Interleukin-8): > 79 µM (inactive)

COc1ccc(CNC(=O)CSc2n[nH]c3c4ccccc4nc-3n2)cc1
IC50 [17]: 1.54 µM (active) | IC50 [18]: 4.39 µM (active) | IC50 [19]: 83.3 µM (inactive)

CC(C)(C)OC(=O)N1CCCC(C(=O)Nc2cccc(C(=O)NCCCCc3ccccc3)c2)C1 (centres undefined)
IC50 [20]: > 69.5 µM (inactive) | IC50 [21]: > 69.5 µM (inactive)
